ChEMBL document CHEMBL1201862, “PubChem BioAssay data set” (2004)
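Method: 48-hour compound exposure of cells in 96-well plates, five concentrations, linear interpolation of endpoints. GI50: concentration for 50% inhibition of growth.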 The source made the active and inactive calls. Cut-off read from the data, not from the text of the source: active = GI50 up to about 1.1 µM and inactive = higher.

Tests used:
Assay in all cases: NCI-60 cell line screen, 48 h
786-0 = system: 786-0
DU-145 = system: DU-145
HCT-116 = system: HCT-116
HCT-15 = system: HCT-15
HT-29 = system: HT-29
KM12 = system: KM12
MDA-MB-231 = system: MDA-MB-231
MDA-MB-435 = system: MDA-MB-435
NCI-H522 = system: NCI-H522
SF-268 = system: SF-268
SF-295 = system: SF-295
SK-MEL-2 = system: SK-MEL-2
SK-MEL-5 = system: SK-MEL-5
SNB-19 = system: SNB-19
SR = system: SR
TK-10 = system: TK-10
EKVX = system: EKVX
OVCAR-3 = system: OVCAR-3
RXF 393 = system: RXF 393

Compound | GI50 (786-0) | GI50 (DU-145) | GI50 (HCT-116) | GI50 (HCT-15) [µM] | GI50 (HT-29) | GI50 (KM12) | GI50 (MDA-MB-231) | GI50 (MDA-MB-435) | GI50 (NCI-H522) | GI50 (SF-268) | GI50 (SF-295) | GI50 (SK-MEL-2) | GI50 (SK-MEL-5) | GI50 (SNB-19) | GI50 (SR) | GI50 (TK-10) | GI50 (EKVX) | GI50 (OVCAR-3) | GI50 (RXF 393)
C=CCN(c1cc(OC)c2c(c1[N+](=O)[O-])C(C)(SC)C(=O)N2)S(C)(=O)=O (stereo unspecified) | 87.7 µM (inactive) | > 100 µM (inactive) | > 100 µM (inactive) | > 100 | > 100 µM (inactive) | > 100 µM (inactive) | > 100 µM (inactive) | > 100 µM (inactive) | 82.2 µM (inactive) | 83.6 µM (inactive) | 77.1 µM (inactive) | > 100 µM (inactive) | > 100 µM (inactive) | 96.6 µM (inactive) | 31.8 µM (inactive) | 50.5 µM (inactive) | – | – | –
c1ccc2c(c1)SCCCSCCSCCCS2 | > 100 µM (inactive) | > 100 µM (inactive) | > 100 µM (inactive) | > 100 | > 100 µM (inactive) | > 100 µM (inactive) | 57.3 µM (inactive) | > 100 µM (inactive) | > 100 µM (inactive) | > 100 µM (inactive) | > 100 µM (inactive) | – | > 100 µM (inactive) | > 100 µM (inactive) | > 100 µM (inactive) | > 100 µM (inactive) | 99.8 µM (inactive) | > 100 µM (inactive) | –
C=C1CC[C@@H]2[C@](C)(COC(=O)CCC(=O)OC)CCC[C@@]2(C)[C@@H]1CCC1=CC(=O)OC1 | 70.5 µM (inactive) | 71.4 µM (inactive) | 59.8 µM (inactive) | 39.5 | > 100 µM (inactive) | 43.6 µM (inactive) | > 100 µM (inactive) | > 100 µM (inactive) | 25.9 µM (inactive) | – | > 100 µM (inactive) | 43.4 µM (inactive) | 30.5 µM (inactive) | > 100 µM (inactive) | 21.5 µM (inactive) | > 100 µM (inactive) | > 100 µM (inactive) | 61.4 µM (inactive) | –
C=CC(CCc1ccc(C(=O)OCC)cc1)c1c(N)nc(N)[nH]c1=O (stereo unspecified) | > 100 µM (inactive) | > 100 µM (inactive) | > 100 µM (inactive) | > 100 | 72.8 µM (inactive) | > 100 µM (inactive) | > 100 µM (inactive) | > 100 µM (inactive) | – | > 100 µM (inactive) | 57.8 µM (inactive) | > 100 µM (inactive) | 23.5 µM (inactive) | > 100 µM (inactive) | > 100 µM (inactive) | 60.3 µM (inactive) | – | 72.1 µM (inactive) | > 100 µM (inactive)
CN1CC[C@]2(c3cccc(O)c3)CC(=O)/C(=C/c3ccc(Cl)c(Cl)c3)[C@@H]1C2 | 1.05 µM (active) | 1.65 µM (inactive) | 1.13 µM (inactive) | 1.16 | 1.01 µM (active) | 0.575 µM (active) | 1.15 µM (inactive) | 0.337 µM (active) | – | 1.71 µM (inactive) | 1.52 µM (inactive) | – | 1.55 µM (inactive) | 1.75 µM (inactive) | 0.281 µM (active) | 1.86 µM (inactive) | 1.55 µM (inactive) | – | 0.427 µM (active)
CC(=O)C(C)C(=O)N1C(=O)N(C)C2(C)N(C)C(=O)NC12C (stereo unspecified) | > 100 µM (inactive) | > 100 µM (inactive) | > 100 µM (inactive) | > 100 | > 100 µM (inactive) | > 100 µM (inactive) | > 100 µM (inactive) | > 100 µM (inactive) | > 100 µM (inactive) | > 100 µM (inactive) | > 100 µM (inactive) | > 100 µM (inactive) | > 100 µM (inactive) | > 100 µM (inactive) | > 100 µM (inactive) | > 100 µM (inactive) | > 100 µM (inactive) | > 100 µM (inactive) | –
